Experiment [1] addresses T1, glutathione peroxidase 4 (GPX4) (Homo sapiens, UniProt P36969).
T1 sequence (P36969 28-197): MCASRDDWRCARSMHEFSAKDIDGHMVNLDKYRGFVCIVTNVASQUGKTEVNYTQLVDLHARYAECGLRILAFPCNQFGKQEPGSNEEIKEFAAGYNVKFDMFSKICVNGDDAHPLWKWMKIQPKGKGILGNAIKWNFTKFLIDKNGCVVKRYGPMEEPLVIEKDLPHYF
As to the kind of experiment: GPX4 inhibitor screening assay kit. The class given is biochemical.

Experiment [2] concerns the target T1, glutathione peroxidase 4 (GPX4). The experiment is described as follows: GPX4 assay kit. The following applies: read-out: % enhancement at 100 μM. In kind it is biochemical.

The term IC50 denotes the concentration that inhibits the measured activity by half. A low value points to greater potency in that assay.

In experiment [1], `COC(=O)c1ccc([C@H]2c3[nH]c4ccccc4c3C[C@H](C(=O)OC)N2C(=O)CCl)cc1` [RSL3] came in with an IC50 of 17.17 ± 0.17 µM. Take `O=C(OC[C@H]1O[C@@H](OC(=O)c2cc(O)c(O)c(OC(=O)c3cc(O)c(O)c(O)c3)c2)[C@H](OC(=O)c2cc(O)c(O)c(OC(=O)c3cc(O)c(O)c(O)c3)c2)[C@@H](OC(=O)c2cc(O)c(O)c(OC(=O)c3cc(O)c(O)c(O)c3)c2)[C@@H]1OC(=O)c1cc(O)c(O)c(OC(=O)c2cc(O)c(O)c(O)c2)c1)c1cc(O)c(O)c(OC(=O)c2cc(O)c(O)c(O)c2)c1` [TA, tannic acid]: the activation at 100 µM in experiment [2] worked out at 19%.

These data come from article PMC10498722 (Chemical Science, 2023).
